# Legend:
# [1] = cited from earlier work
# [2] = Photolability, comparison of sunscreen actives (Table 1); assay type: physicochemical; conditions: Table 1 comparison of actives
# Nrf2 pathway = conditions: Ye et al. 2014; cited from earlier work
# hairless SKH-1 mice = experiment: UV damage in skin of hairless SKH-1 mice after topical PHF
# Protocol: PHF (obtained from MER Corp.) was dissolved in water and applied on the right flank (2 cm×1 cm) of the dorsal region of hairless SKH-1 mice. The left flank (2 cm×1 cm) of the same mouse was used as a control with topical application of deionized water. The topical applications were allowed to dry for 15 minutes followed by UV exposure (80 mJ/cm^2; 90% UVB and 10% UVA). […] Mice were euthanized 48 hours post-UV exposure, and the skin was harvested for histological analysis or immunofluorescent staining.
# [3] = UV-Visible absorbance spectra of PHF solution vs commercial SPF60 sunscreen; assay type: physicochemical; conditions: PHF solution 0.5 mg/mL in 25% glycerol
# Protocol: The inventors discovered that PHF absorbs UV more effectively than commercial sunscreens. For initial comparisons (FIG. 2), the UV-Vis absorption of PHF solution at 0.5 mg/mL (prepared in 25% glycerol) was compared with Neutrogena SPF 60 (4.9% Titanium dioxide and 4.7% Zinc oxide) sunscreen at 5 mg/mL (in de-ionized water). The total concentration of AI in the commercial sunscreen suspension was equal to that of PHF (0.5 mg/mL) solution. PHF is a broad spectrum UV absorber, as its critical wavelength of 381 nm and UVA/UVB ratio of 1.6 exceeds the FDA limit of 370 nm and 0.91, respectively. The absorbance of PHF is 2.5-1.9 times higher in the UVB region (280-320 nm) and 1.9-1.5 times higher in the UVA region (320-400 nm) than SPF60 sunscreen. This high UV absorptive ability of PHF (for preventing direct damage from UVB and UVA) becomes even more important when combined with other potential advantages of PHF (preventing indirect free radical mediated damage) over current sunscreen AIs, as summarized in Table 1 and FIG. 3.
# [4] = cited from earlier work; remark: listed apart in the source
# skin sections = experiment: Blinded scoring of erythema and edema of UVB-exposed skin sections in a preclinical model; assay type: in vivo; conditions: UVB 120 mJ/cm^2, 48 hours, blinded panel
# Protocol: PHF is a single, multifunctional active that replaces multiple actives of current sunscreen formulations. […] The concentration of PHF was optimized and the minimum concentration of PHF that prevents symptoms of sunburn (erythema and edema) was determined. In a preclinical model, different skin sections were applied with PHF formulation, SPF60 commercial sunscreen, vehicle (without PHF) samples and control (no application). All skin sections were exposed to UVB at 120 mJ/cm^2 dose. The skin sections were monitored for erythema (redness) and edema (swelling) at 24, 48 and 72 hours. Maximum erythema is usually observed at 48 hours. The photographs of skin sections at 48 hours were scored by a panel consisting of two dermatologists and two non-dermatologists. The panel was blinded to the identity of the samples. The result of blinded scoring study is plotted in FIG. 5. […] [table]
# [5] = 48 hours post-UV exposure, vs water control flank
substance,measurement,setting,value
polyhydroxy fullerene [PHF],free radical generation on UV absorption,[1]; Krishna et al. 2008,without generating free radicals
same,Potential ROS generation,[1]; Table 1 comparison of actives,None
same,Photolabile,[2],No
same,Nrf2 pathway activation,Nrf2 pathway,activates the Nrf2 pathway
same,erythema (sunburn),"hairless SKH-1 mice; 24 hours after UV exposure (80 mJ/cm^2; 90% UVB and 10% UVA), topical PHF in water vs water control flank",did not show any signs of erythema
same,"DNA photoproducts (cyclopyrimidine dimers, CPD)",hairless SKH-1 mice; [5],fewer DNA photoproducts
same,"epidermal cell death (dyskeratotic sunburn cells), histology",hairless SKH-1 mice; [5],marked reduction in epidermal cell death
same,recovery of proliferation (Ki-67),hairless SKH-1 mice; [5],faster recovery of proliferation
same,UVA/UVB ratio,[3]; FDA limit 0.91,1.6
same,critical wavelength,[3]; FDA limit 370 nm,381 nm
same,ROS susceptibility,[4]; Table 1 comparison of actives,Catalytically
same,neutralization of free radicals,"[4]; superoxide, nitric oxide, etc., Yin et al. 2009",can catalytically neutralize different types of free radicals
same,erythema and edema score vs commercial SPF60 sunscreen,skin sections,on par with commercial SPF60 sunscreen
same,erythema and edema score vs control and vehicle only,skin sections; α=0.01,reduced erythema and edema significantly
